From patent publication US20260355166A1, “2-SUBSTITUTED PIPERIDINE DERIVATIVES, PREPARATION METHODS AND MEDICINAL USES THEREOF” (JIANGSU HANSOH PHARMACEUTICAL GROUP CO., LTD., priority 2022, published 2026)

How the values were obtained:
human Factor B [1] = molecular target: T1, human Factor B (Homo sapiens, UniProt P00751); experiment: Factor B Binding Assay by TR-FRET; settings: recombinant human Factor B catalytic domain 10 nM, 100 nM tracer, 1 h
T1 construct: Recombinant human Factor B catalytic domain (a.a. 470-764, C-terminal his-tagged, produced in-house); made in house
Protocol: • 1. Recombinant human Factor B catalytic domain (a.a. 470-764, C-terminal his-tagged, produced in-house) • 2. 5× Kinase Buffer A (Thermo Fisher, CAT #PV3189) • 3. LANCE Eu-W1024 Anti-6×His Antibody (PerkinElmer, CAT #AD0401) • 4. Probe (TRFRET_tool 2, reported in WO 2015/009616)
[drawing 252] • 5. DMSO (Thermo Fisher Scientific) • 6. Compounds-10 mM stock in DMSO • 7. Victor Nivo multimode plate reader (PerkinElmer) • 8. OptiPlate-384, white opaque 384-well microplate (PerkinElmer, CAT #6007290)
Factor B binding affinity of each compound tested was determined using a time-resolved fluorescence resonance energy transfer (TR-FRET) technology. 10 nM recombinant his-tagged Factor B catalytic domain, varying concentrations of inhibitors, 4 nM LANCE Eu-W1024 Anti-6×His Antibody and 100 nM TRFRET_tool2 tracer was incubated in 1× Kinase Buffer A for 1 h. Measurement was performed in a reaction volume of 15 μL by adding 5 μL of the test compound, 5 μL of Factor B/antibody mixture and 5 μL of tracer into white opaque 384-well assay plates. The TR-FRET signal was read on a plate reader with an excitation wavelength of 340 nm and detection wavelengths of 615 and 665 nm. Binding affinity was determined for each compound by measuring TR-FRET signal at various concentrations of compound and plotting the relative fluorescence Emission Ratio (665 nm/615 nm) against the inhibitor concentration to estimate the IC50 from [Compound] vs Emission Ratio using the four parameters dose-response inhibition curve with a variable slope model in GraphPad Prism.
The binding affinity to recombinant Factor B catalytic domain of the compounds of the present invention was determined by the above assay, and IC50 values (nM) are shown in the following table.

human Factor B [2] = molecular target: T1, human Factor B; experiment: Target Residence Time of Factor B Inhibitors Determined by Surface Plasmon Resonance (SPR); format: binding; settings: for Kd: immobilized recombinant human Factor B catalytic domain, room temperature; for t1/2 (binding half-life): t1/2=ln 2/kd; for residence time: tR=1/kd
Source text: • 1. Recombinant human Factor B catalytic domain (a. a. 470-764, C-terminal his-tagged, produced in-house) • 2. PBS-P+ Buffer 10× (Cytiva, CAT #28995084) • 3. Series S Sensor Chip NTA (Cytiva, CAT #BR100532) • 4. Amine Coupling Kit (Cytiva, CAT #BR100050) • 5. DMSO (Millipore Sigma, CAT #34869-1L) • 6. Greiner 96 well plates, polypropylene (Sigma-Aldrich, CAT #M7310-100EA) • 7. Microplate Foil, 96-well (Cytiva, CAT #28975816) • 8. Biacore 8k (Cytiva)
Biacore 8k instrument was primed using 1×PBS-P+ buffer before docking a Cytiva NTA chip. Recombinant human Factor B catalytic domain were immobilized on a NTA chip to a level of about 5000 resonance units (RU) using 1×PBS-P+ buffer [[…] phosphate buffer with 2.7 mM KCl, 137 mM NaCl, and 0.05% (v/v) Tween-20]. The protein ligand was further crosslinked to sensorchip surface by amine coupling kit. Immobilization and binding experiment were performed at room temperature.
After changing buffer to 1×PBS-P+ buffer with 2% (v/v) DMSO, a pre-run was performed for a period of at least 30 min at a flow rate of 30 μl/min to obtain a stable surface. The kinetic constants of the compounds were determined by single-cycle kinetics with six consecutive injections (or multi-cycle kinetics with eight consecutive injections) with an increasing compound concentration in ranges of 0.8-200 nM, 12.5-400 nM, 4.1-1,000 nM or 41-10,000 nM depending on the potency. Single-cycle kinetics experiments were performed with an association time of 60 s per concentration and a dissociation time of 300 s (or a dissociation time of 120 s for multi-cycle kinetics experiments). A flow rate of 30 μl/min was used. A blank run with the same conditions was performed before the compound was injected.
The SPR sensorgrams were analyzed with Biacore Insight Evaluation Software by using a method of double referencing. The resulting curve was fitted with a 1:1 binding model. The kinetic constants (ka, kd, KD) of replicates were averaged. Residence time (tR) was calculated from the dissociation constant kd with the formula tR=1/kd. Binding half-life (t1/2) was calculated from the dissociation constant kd with the formula t1/2=ln 2/kd

[3] = test system: MAC (Membrane Attack Complex) formation; experiment: Inhibition of Human MAC Deposition (AP deposition assay, LPS activation, ELISA of C5b-9); format: biochemical; settings: human serum, LPS coated plates, GVB buffer with MgCl2 and EGTA, C5b-9 detection
Protocol: To quantify the inhibitory effects of compounds on complement protein deposition following LPS activation of the alternative complement pathway, the AP deposition assay was employed. Test concentration of the compounds started at 11.1 μM or 3.70 µM and were diluted 3-fold in DMSO to produce 8 concentration points, with each concentration tested in technical triplicates. Human serum was combined with test compounds in GVB buffer containing 5 mM MgCl2 10 mM EGTA, and was added to LPS coated black Maxisorp plates. After a period of incubation, the plate was inverted, and ELISA detection of complement proteins bound to LPS was performed. A primary antibody that detected human C5b-9 was used, followed by a compatible HRP conjugated secondary antibody. Peroxidase activity was detected using the Quantablu Fluorogenic Peroxidase substrate kit and fluorescence was measured at 340 nm/435 nm using the i3x plate reader to determine the quantity of alternative pathway complement protein deposition.

[4] = test system: rabbit reticulocyte hemolysis; experiment: Inhibition of AP Dependent Hemolysis (rabbit cells in human serum); format: cell-based, human serum; rabbit erythrocytes; settings: Oryctolagus cuniculus, GVB buffer with MgCl2 and EGTA, 37 °C, OD405
Protocol: To quantify the inhibitory effects of compounds on the hemolytic activity of the alternative complement pathway, the AP hemolytic assay was employed. Test concentration of the compounds started at 100 μM and were diluted 3-fold in DMSO to produce 8-11 concentration points, with each concentration tested in technical triplicates. Human serum was added to rabbit reticulocytes in a solution of GVB buffer with MgCl2 and EGTA. After a period of incubation at 37 °C, spontaneous lysis of rabbit erythrocytes due to serum AP complement activity was quantified using OD405 absorbance, measured using the i3x plate reader.

[5] = Pharmacokinetic Studies in Rats; format: in vivo, brown Norway rats; settings: plasma, rat
Protocol: Three-month-old brown Norway rats were administered the Example compound intravenously (0.5 mg/kg dose, formulation: 10% 1,2-Propanediol+25% (20% solutol HS 15 in water)+65% phosphate buffered saline at 0.1 mg/mL) and via oral gavage at 2 mg/kg dose as a clear solution (0.5% MC+0.5% Tween 80 in water at 1 mg/mL). Plasma was collected from rats per time point at 0.25, 0.5, 1, 6, and 24 h after administration. The concentrations of the test article were measured in plasma by HPLC-MS/MS, two individual plasma samples at each time point. Chromatographic separation was carried out on Waters BEH C18 Column (2.1×50 mm, 1.7 μm) column (MAC-MOD Analytical, Chadds Ford, PA), using a gradient elution method with water and acetonitrile, both containing 0.025% formic acid-1 mM NH4OAc. Mass spectrometric measurements in positive electrospray ionization were directed at quantifying the mass transition with [M+H]^+ as the precursor ion on API6500, triple quadruple mass spectrometer (Sciex, Framingham, MA). The relevant pharmacokinetic parameters were estimated using noncompartmental methods using WinNonlin (Enterprise, version 8.2).

T1 sequence (P00751 470-764): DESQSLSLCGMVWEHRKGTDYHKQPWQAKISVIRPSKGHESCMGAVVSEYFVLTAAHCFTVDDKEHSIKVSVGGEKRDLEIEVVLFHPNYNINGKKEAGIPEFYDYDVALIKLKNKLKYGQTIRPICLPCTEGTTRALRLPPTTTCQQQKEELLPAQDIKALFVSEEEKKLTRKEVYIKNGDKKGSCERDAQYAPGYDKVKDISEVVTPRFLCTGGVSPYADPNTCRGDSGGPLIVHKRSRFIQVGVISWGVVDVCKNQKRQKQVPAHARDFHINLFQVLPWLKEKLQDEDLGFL

IC50 (human Factor B [1]) [µM]	Kd (human Factor B [2]) [µM]	t1/2 (binding half-life) (human Factor B [2]) [min]	residence time (human Factor B [2]) [min]	IC50 [3] [µM]	bioavailability ([5]; 2 mg/kg, 0.5 mpk IV and 2 mpk PO) [%]	clearance ([5]; 0.5 mg/kg IV, read-out: 0.5 MPK IV arm CL) [L/h/kg]	half-life ([5]; 2 mg/kg PO, read-out: T½ (h) - 2 MPK PO (converted)) [h]	AUC(0-t) ([5]; 0.5 mpk IV and 2 mpk PO (arm not printed in this column head), read-out: Plasma AUC0-last) [µM·h]	SMILES	IC50 [4] [µM]
0.00105	0.0009	11.8	16.9	0.147	56	0.078	8.5	25.4	COc1cc(C)c2[nH]ccc2c1CN1CCC2(CC(F)(F)C2)CC12CCc1cc(C(=O)O)ccc12 (single isomer, unassigned) [Example 1 isomer 1, 3,3-difluoro-1′-((5-methoxy-7-methyl-1H-indol-4-yl)methyl)-2″,3″-dihydrodispiro[cyclobutane-1,4′-piperidine-2′,1″-indene]-5″-carboxylic acid]	0.22
0.00201	0.0022	13.6	19.6	0.129	–	–	–	–	COc1cc(C)c2[nH]ccc2c1CN1CCC2(CC(F)(F)C2)C[C@]12CCCc1cc(C(=O)O)ccc12 (single isomer, unassigned) [Example 2 isomer 1]	0.283
0.00114	0.00173	12.6	18.2	0.193	–	–	–	–	COc1cc(C)c2[nH]ccc2c1CN1CCC2(CC(F)(F)C2)C[C@@]1(C)c1ccc(C(=O)O)cc1 (single isomer, unassigned) [Example 3 isomer 1]	0.252
